Assay results taken from paper PMC8537068, “Do Lipids Influence Gastrointestinal Processing: A Case Study of Major Soybean Allergen Gly m 4” (Membranes, 2021).

Legend:
Gly m 4 = target: T1, Gly m 4 (Glycine max, UniProt P26987); experiment: TNS displacement fluorescence; type: binding; conditions: 4 µM protein, 4 µM TNS, 4 µM lipid; 0.01 M phosphate pH 7.4, 25 °C
T1 construct: gene PR-10
T1 sequence (P26987 1-158): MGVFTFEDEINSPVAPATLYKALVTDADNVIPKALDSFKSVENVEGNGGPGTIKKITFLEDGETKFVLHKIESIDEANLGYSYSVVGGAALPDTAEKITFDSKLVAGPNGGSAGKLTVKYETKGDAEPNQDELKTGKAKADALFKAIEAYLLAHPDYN

pepsin = target: T2, pepsin (Sus scrofa, UniProt P00791); experiment: TNS displacement fluorescence; type: binding; conditions: 4 µM protein, 4 µM TNS, 4 µM lipid; 0.05 M HCl pH 2.0, 25 °C
T2 construct: gene PGA; commercial native porcine pepsin (Sigma-Aldrich), mature enzyme without propeptide
T2 sequence (P00791 60-385): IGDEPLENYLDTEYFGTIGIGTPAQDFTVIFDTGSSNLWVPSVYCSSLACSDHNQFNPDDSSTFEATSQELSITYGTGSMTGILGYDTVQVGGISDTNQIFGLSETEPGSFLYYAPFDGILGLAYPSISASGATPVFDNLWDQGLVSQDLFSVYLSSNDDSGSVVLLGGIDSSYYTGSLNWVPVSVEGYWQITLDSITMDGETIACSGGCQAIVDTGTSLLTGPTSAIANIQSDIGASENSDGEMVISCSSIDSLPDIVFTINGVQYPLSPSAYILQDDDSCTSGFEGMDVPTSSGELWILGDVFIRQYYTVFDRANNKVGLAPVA

Row | SMILES | % of control TNS fluorescence (Gly m 4) [%] | % of control TNS fluorescence (pepsin)
1 | CCCCCCCCCCCCCCCC(=O)OC[C@@H](O)COP(=O)(O)OCC(O)CO (some centres unmarked) [LPPG, 1-palmitoyl-2-hydroxy-sn-glycero-3-phosphoglycerol] | 26 | pepsin bound to the tested FAs and LPPG with an equal efficiency
2 | CCCCCCCC/C=C\CCCCCCCC(=O)O [OLE, oleic acid] | 12 | pepsin bound to the tested FAs and LPPG with an equal efficiency
3 | CCCCCCCCCCCCCCCCCC(=O)O [STE, stearic acid] | – | pepsin bound to the tested FAs and LPPG with an equal efficiency
